Results reported in ChEMBL document CHEMBL1201862, “PubChem BioAssay data set” (2004).
Calls of active or inactive are those of the source.

Tests used:
Oxytocin receptor = Oxytocin receptor (Homo sapiens, UniProt P30559); test: Fluorescence-based cell-based high throughput dose response assay for agonists of the Oxytocin Receptor (OXTR). [Related pubchem assays: 2435 (Primary screen (OXTR agonists in singlicate)), 434991 (Counterscreen (V1R agonists in triplicate)), 2482 (Summary (OXTR agonists)), 434963 (Confirmation screen (OXTR agonists in triplicate))]; format: functional
Ion channel NompC = Ion channel NompC (Danio rerio, UniProt Q7T1G6); test: Dose response cell-based high-throughput screening assay for agonists of the transient receptor potential channel N1 (TRPN1). [Related pubchem assays (depositor defined):AID1424, AID1448]; format: functional
Vasopressin V1a receptor = Vasopressin V1a receptor (Homo sapiens, UniProt P37288); test: Counterscreen for Oxytocin Receptor (OXTR) agonists: Fluorescence-based cell-based high throughput dose response assay to identify agonists of the vasopressin 1 receptor (V1R). [Related pubchem assays: 2435 (Primary screen (OXTR agonists in singlicate)), 434991 (Counterscreen (V1R agonists in triplicate)), 2482 (Summary (OXTR agonists)) …; format: functional
Galanin receptor type 2 = Galanin receptor type 2 (Homo sapiens, UniProt O43603); test: Dose Response cell-based high-throughput screening assay to identify antagonists of galanin receptor 2 (GALR2). [Related pubchem assays: 828, 866 ]; format: functional
Mucolipin-3 = molecular target: T1, Mucolipin-3 (Homo sapiens, UniProt Q8TDD5); test: Fluorescence counterscreen assay for […] agonists: dose response cell-based high-throughput screening assay to identify agonists of the transient receptor potential channel ML3 (TRPML3). [Related pubchem assays: 1424, 1448 ]; format: functional
T1 sequence (Q8TDD5 whole entry): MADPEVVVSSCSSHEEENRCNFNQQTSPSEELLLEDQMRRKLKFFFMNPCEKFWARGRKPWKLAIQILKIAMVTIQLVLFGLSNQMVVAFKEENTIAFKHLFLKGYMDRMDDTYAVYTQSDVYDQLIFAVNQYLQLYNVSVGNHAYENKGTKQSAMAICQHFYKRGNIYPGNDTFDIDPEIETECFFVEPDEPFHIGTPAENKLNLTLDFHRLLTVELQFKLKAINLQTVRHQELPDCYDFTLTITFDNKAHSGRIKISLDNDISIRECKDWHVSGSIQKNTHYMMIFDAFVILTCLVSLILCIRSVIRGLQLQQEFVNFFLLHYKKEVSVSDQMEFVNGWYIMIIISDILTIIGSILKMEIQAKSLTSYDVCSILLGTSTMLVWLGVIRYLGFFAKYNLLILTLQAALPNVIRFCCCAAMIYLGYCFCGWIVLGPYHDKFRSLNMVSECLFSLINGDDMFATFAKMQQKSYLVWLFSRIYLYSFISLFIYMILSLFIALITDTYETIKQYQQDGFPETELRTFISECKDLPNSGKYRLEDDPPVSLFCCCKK

[1] = molecular target: DNA dC->dU-editing enzyme APOBEC-3A (Homo sapiens, UniProt P31941); test: APOBEC3A DNA deaminase inhibitors, dose response, biochemical (AID 504722); format: functional
[2] = molecular target: Mitochondrial peptide methionine sulfoxide reductase (Bos taurus, UniProt P54149); test: Absorbance-based biochemical high throughput dose response assay for activators of Methionine sulfoxide reductase A (MsrA).; format: functional
[3] = P. falciparum late gametocyte killing, dose response, luminescence (AID 1117278); format: functional, cell-based;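 further: gametocytes exposed to compound for 24 hours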
[4] = molecular target: DNA dC->dU-editing enzyme APOBEC-3G (Homo sapiens, UniProt Q9HC16); test: Dose Response confirmation of small molecule APOBEC3G DNA Deaminase Inhibitors via a fluorescence-based single-stranded DNA deaminase assay. [Related pubchem assays (depositor defined):AID493012, AID493028]; format: functional
[5] = molecular target: Mannose-6-phosphate isomerase (Homo sapiens, UniProt P34949); test: human PMI inhibitors, high substrate, primary screen, biochemical, fluorescence intensity, high mannose 6-phosphate (AID 1220)
[6] = THP-1 cell cytotoxicity, dose response, cytotoxicity control for non-replicating M. tuberculosis project (AID 489025); format: functional
[7] = molecular target: Eukaryotic translation initiation factor 4E (Mus musculus, UniProt P63073); test: eIF4E–eIF4G protein interaction inhibitors, dose response, biochemical, TR-FRET (AID 855); format: functional;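 further: potency for disrupting eIF4E binding to eIF4GI seen as loss of FRET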
Large T antigen = Large T antigen (Simian virus 40, UniProt P03070); format: functional, Betapolyomavirus macacae;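 further: Confirmatory-stage PubChem screen for compounds that inhibit SV40 T antigen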
Hexokinase = molecular target: T2, Hexokinase (Trypanosoma brucei, UniProt Q38C41); test: Confirmation assay for inhibitors of Trypanosoma brucei hexokinase 1-Analogue-first series. [Related pubchem assays (depositor defined):AID1430, AID1632, AID2516, AID2560, AID2579, AID2600, AID449725, AID492951]; format: functional
T2 sequence (Q38C41 whole entry): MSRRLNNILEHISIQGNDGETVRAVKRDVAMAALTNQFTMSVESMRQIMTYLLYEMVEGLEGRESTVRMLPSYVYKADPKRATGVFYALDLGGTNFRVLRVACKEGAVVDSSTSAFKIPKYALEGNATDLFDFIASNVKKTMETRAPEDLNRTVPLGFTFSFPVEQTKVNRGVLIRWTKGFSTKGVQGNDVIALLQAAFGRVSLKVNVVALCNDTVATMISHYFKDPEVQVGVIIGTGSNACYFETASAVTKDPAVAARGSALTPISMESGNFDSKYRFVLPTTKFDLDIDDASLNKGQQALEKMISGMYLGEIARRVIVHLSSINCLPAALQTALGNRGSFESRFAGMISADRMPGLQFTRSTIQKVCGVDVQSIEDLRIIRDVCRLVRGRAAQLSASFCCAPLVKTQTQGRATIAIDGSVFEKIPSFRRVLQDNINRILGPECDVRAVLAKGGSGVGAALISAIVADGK

[8] = molecular target: Glucose-6-phosphate 1-dehydrogenase (Homo sapiens, UniProt P11413); test: human G6PD enzyme inhibitors, dose response, selectivity assay for P. falciparum G6PD inhibitor project, biochemical, fluorescence (AID 504792); format: functional
[9] = microbe, parasite or virus in culture; format: functional; settings: Mycobacterium tuberculosis
Aspartyl aminopeptidase = Aspartyl aminopeptidase (Plasmodium falciparum 3D7, UniProt Q8I2J3)
cells = format: functional
[10] = Jurkat T cell cytotoxicity, dose response, cytotoxicity control for P. falciparum gametocyte viability project, luminescence (AID 1117277); format: functional, cell-based;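 further: potency reflects loss of cellular ATP meaning fewer viable cells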
[11] = Vero E6 cell cytotoxicity, dose response, cytotoxicity control for non-replicating M. tuberculosis project, secondary assay (AID 492998); format: functional, VeroE6; settings: Vero C1008
Procathepsin L = Procathepsin L (Homo sapiens, UniProt P07711)
Cytochrome P450 2D6 = Cytochrome P450 2D6 (Homo sapiens, UniProt P10635); test: qHTS Assay for Inhibitors and Substrates of Cytochrome P450 2D6. [Related pubchem assays: 410 ]; format: ADME; settings: read-out: Potency

Procathepsin L, sequence (P07711 whole entry): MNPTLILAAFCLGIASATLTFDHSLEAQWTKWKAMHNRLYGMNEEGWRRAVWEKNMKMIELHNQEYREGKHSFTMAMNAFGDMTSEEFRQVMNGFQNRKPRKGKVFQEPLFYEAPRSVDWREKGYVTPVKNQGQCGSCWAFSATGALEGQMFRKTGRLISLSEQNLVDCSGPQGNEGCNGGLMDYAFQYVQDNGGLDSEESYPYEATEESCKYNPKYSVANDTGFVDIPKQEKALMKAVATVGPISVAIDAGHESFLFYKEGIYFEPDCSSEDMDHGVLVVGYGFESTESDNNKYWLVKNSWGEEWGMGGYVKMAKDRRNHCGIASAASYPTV
Oxytocin receptor, sequence (P30559 whole entry): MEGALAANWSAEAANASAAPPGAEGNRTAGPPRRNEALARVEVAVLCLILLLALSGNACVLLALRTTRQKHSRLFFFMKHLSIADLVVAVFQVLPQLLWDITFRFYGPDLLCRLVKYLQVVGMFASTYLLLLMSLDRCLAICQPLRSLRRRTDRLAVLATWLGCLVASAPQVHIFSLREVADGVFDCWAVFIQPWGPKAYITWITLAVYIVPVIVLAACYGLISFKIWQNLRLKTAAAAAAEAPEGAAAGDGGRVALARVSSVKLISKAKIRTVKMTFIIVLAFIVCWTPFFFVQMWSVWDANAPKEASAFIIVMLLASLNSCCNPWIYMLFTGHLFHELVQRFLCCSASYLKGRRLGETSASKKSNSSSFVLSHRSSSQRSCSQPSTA
Vasopressin V1a receptor, sequence (P37288 whole entry): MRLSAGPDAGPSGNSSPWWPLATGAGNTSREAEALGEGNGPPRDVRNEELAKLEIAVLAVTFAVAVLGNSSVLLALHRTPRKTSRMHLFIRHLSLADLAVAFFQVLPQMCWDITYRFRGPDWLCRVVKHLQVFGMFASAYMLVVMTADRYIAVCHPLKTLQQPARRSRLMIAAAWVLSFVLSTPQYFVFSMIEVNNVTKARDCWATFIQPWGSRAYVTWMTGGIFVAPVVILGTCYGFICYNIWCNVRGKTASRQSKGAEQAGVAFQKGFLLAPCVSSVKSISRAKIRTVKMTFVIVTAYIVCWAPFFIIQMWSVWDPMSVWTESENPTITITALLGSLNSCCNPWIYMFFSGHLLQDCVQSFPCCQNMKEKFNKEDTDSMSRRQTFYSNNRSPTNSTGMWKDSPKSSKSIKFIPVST
Ion channel NompC, sequence (Q7T1G6 whole entry): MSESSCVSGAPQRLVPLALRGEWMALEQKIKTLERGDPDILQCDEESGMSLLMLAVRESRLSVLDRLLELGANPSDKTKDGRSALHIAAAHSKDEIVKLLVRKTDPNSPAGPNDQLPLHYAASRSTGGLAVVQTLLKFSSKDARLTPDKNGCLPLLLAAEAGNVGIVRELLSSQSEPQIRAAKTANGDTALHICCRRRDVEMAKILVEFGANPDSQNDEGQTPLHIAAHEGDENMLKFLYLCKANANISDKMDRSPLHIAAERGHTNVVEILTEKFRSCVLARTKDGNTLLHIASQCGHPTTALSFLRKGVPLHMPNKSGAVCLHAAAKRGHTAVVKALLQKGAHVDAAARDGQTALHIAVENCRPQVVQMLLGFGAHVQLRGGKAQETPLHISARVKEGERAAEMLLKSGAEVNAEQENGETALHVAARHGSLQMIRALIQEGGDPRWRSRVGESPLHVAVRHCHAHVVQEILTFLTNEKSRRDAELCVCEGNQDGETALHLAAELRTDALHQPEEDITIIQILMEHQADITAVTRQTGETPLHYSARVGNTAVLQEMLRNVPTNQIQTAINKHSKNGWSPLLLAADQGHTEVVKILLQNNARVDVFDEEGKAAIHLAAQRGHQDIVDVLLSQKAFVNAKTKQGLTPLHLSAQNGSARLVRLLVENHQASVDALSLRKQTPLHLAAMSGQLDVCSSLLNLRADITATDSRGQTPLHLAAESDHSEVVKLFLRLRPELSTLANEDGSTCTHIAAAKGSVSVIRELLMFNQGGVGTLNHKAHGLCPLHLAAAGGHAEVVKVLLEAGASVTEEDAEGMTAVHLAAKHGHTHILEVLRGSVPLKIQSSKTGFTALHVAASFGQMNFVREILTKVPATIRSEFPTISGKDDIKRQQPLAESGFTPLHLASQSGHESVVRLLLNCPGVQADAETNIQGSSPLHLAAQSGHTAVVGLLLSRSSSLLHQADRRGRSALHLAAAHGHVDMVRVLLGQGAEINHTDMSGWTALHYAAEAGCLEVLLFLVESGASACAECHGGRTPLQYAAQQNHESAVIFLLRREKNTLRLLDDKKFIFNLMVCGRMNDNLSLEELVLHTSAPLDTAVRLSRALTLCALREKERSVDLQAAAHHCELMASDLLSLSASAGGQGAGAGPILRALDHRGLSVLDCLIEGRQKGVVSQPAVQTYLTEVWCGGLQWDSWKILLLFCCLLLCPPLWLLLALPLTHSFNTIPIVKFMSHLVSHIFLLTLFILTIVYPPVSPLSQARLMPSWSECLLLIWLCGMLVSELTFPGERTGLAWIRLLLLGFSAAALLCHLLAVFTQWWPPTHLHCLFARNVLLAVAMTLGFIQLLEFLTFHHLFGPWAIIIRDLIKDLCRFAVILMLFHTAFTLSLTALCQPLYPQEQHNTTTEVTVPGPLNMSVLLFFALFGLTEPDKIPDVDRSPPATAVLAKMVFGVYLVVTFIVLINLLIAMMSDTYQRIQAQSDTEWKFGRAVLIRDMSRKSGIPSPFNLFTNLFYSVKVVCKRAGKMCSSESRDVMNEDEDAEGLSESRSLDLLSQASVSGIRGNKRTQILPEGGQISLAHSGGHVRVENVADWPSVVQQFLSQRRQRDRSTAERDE
Eukaryotic translation initiation factor 4E, sequence (P63073 whole entry): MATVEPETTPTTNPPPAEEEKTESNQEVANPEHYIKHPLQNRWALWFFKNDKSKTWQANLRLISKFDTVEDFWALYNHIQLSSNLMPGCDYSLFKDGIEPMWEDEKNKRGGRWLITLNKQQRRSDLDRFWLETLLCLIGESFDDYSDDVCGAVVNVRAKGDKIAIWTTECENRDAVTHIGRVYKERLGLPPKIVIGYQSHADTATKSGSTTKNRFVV
Glucose-6-phosphate 1-dehydrogenase, sequence (P11413 whole entry): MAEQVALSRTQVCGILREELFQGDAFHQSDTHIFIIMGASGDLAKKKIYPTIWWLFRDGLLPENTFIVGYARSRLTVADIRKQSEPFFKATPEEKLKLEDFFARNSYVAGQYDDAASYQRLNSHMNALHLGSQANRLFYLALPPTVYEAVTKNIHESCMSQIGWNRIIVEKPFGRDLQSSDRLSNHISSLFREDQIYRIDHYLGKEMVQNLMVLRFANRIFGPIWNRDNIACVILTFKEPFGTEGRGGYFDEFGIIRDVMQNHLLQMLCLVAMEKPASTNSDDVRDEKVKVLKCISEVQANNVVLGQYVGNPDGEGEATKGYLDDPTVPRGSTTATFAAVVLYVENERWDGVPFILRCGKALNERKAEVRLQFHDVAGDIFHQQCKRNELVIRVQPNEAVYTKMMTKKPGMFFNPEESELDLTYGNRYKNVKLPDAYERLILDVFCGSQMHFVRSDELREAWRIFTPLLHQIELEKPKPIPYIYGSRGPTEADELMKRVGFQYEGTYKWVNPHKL
DNA dC->dU-editing enzyme APOBEC-3G, sequence (Q9HC16 whole entry): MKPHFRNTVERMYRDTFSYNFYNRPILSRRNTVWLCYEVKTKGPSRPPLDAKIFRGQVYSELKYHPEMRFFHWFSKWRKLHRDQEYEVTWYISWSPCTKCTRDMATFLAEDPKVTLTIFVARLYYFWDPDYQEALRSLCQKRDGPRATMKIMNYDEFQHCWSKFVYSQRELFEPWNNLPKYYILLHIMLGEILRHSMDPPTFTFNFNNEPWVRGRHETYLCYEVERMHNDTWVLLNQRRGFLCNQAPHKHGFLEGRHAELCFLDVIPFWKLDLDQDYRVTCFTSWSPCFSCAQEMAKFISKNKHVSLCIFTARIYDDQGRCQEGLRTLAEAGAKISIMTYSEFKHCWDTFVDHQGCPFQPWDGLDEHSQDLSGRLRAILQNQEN
Aspartyl aminopeptidase, sequence (Q8I2J3 whole entry): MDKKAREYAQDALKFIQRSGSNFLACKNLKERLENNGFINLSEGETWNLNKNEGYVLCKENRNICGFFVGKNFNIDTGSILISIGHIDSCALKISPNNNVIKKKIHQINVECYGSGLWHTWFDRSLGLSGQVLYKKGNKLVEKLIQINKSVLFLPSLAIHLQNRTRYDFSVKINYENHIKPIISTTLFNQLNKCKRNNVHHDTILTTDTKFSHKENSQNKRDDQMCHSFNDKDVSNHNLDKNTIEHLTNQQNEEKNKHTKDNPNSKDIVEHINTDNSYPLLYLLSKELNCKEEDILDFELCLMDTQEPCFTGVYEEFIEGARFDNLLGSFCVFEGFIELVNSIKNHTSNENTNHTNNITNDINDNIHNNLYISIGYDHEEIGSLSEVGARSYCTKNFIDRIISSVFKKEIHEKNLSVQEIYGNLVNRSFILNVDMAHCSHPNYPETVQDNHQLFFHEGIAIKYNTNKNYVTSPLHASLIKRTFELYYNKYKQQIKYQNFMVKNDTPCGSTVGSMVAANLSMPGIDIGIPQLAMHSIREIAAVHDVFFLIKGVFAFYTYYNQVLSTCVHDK
Galanin receptor type 2, sequence (O43603 whole entry): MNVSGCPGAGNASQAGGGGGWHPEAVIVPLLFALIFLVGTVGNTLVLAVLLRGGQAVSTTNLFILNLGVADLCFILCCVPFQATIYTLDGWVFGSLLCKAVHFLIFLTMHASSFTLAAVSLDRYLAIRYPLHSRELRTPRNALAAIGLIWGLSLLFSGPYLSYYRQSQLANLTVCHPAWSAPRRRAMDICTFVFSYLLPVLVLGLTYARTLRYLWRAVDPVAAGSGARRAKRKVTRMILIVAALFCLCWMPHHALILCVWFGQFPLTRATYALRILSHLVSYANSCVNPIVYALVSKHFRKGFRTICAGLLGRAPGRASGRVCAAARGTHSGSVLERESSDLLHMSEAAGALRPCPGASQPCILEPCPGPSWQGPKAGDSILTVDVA

C/N=c1\[nH]c2cc([N+](=O)[O-])c([N+](=O)[O-])cc2[nH]\c1=N\C
inactive: EC50 (Ion channel NompC) > 29.9 µM
> 29.9 µM (not active): EC50 (Oxytocin receptor) | EC50 (Vasopressin V1a receptor) | EC50 (Mucolipin-3)
active: IC50 (Galanin receptor type 2) 1.29 µM

Cc1ccccc1-n1sc2cc(F)ccc2c1=O
inactive: IC50 [1] > 100 µM | EC50 [2] > 104 µM | IC50 [3] 39.6 µM | IC50 [7] 36.7 µM
> 59.6 µM (not active): IC50 (Procathepsin L)
active: IC50 [4] 9.02 µM | IC50 [5] 8.95 µM | CC50 [6] 19 µM | IC50 (Large T antigen) 13.1 µM | IC50 (Hexokinase) 4.8 µM | IC50 [8] 13.9 µM | CC50 [9] 13 µM | IC50 (Aspartyl aminopeptidase) 0.648 µM | IC50 (cells) 23.7 µM | IC50 [10] 6.73 µM | CC50 [11] 12.1 µM

COC(=O)[C@@H]1C[C@H]1[C@@H](NC(=O)OCc1ccccc1)c1ccccc1
inconclusive: AC50 (Cytochrome P450 2D6) 12.6 µM
